Measurements published in ChEMBL document CHEMBL4052759, “Discovery of DS79182026: A potent orally active hepcidin production inhibitor” (Bioorg Med Chem Lett, 2017).
Each block holds one compound with its values, some of them ahead of it.

Experiments:
[1] = target: T1, Serine/threonine-protein kinase D2 (Homo sapiens) (UniProt Q9BZL6); experiment: Inhibition of PKD2 (unknown origin) at 0.078 uM relative to control
T1 sequence (whole entry): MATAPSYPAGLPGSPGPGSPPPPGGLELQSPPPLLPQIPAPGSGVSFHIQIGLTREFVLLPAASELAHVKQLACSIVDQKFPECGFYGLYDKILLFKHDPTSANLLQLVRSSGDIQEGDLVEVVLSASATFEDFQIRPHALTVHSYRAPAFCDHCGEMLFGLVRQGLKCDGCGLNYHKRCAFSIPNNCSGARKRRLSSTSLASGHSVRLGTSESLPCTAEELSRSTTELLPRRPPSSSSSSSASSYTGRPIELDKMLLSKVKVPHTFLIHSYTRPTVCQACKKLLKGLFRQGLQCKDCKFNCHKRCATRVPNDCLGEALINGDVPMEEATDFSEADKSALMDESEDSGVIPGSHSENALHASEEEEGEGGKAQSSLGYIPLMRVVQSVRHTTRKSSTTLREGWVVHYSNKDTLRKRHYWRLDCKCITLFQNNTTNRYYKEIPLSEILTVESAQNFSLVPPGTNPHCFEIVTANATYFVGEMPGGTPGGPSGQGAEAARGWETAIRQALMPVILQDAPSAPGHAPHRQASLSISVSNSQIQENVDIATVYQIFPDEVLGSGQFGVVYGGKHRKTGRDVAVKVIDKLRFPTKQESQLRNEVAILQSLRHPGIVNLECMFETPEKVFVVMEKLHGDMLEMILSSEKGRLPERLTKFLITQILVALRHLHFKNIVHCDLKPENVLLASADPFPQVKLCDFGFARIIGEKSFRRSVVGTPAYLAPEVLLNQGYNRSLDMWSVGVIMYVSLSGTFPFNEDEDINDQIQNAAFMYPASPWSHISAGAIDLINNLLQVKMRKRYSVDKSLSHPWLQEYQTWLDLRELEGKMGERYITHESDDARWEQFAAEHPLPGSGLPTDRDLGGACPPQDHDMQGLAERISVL

[2] = target: Dual specificity tyrosine-phosphorylation-regulated kinase 1A (Homo sapiens) (UniProt Q13627); experiment: Inhibition of DYRK1a (unknown origin) at 0.078 uM relative to control
[3] = target: Tyrosine-protein kinase Lck (Homo sapiens) (UniProt P06239); experiment: Inhibition of LCK (unknown origin) at 0.078 uM relative to control
[4] = target: Cyclin-dependent kinase 2 (Homo sapiens) (UniProt P24941); experiment: Inhibition of CDK2 (unknown origin) at 0.078 uM relative to control
[5] = target: T2, Calcium/calmodulin-dependent protein kinase type IV (Homo sapiens) (UniProt Q16566); experiment: Inhibition of CAMK4 (unknown origin) at 0.49 uM relative to control
T2 sequence (whole entry): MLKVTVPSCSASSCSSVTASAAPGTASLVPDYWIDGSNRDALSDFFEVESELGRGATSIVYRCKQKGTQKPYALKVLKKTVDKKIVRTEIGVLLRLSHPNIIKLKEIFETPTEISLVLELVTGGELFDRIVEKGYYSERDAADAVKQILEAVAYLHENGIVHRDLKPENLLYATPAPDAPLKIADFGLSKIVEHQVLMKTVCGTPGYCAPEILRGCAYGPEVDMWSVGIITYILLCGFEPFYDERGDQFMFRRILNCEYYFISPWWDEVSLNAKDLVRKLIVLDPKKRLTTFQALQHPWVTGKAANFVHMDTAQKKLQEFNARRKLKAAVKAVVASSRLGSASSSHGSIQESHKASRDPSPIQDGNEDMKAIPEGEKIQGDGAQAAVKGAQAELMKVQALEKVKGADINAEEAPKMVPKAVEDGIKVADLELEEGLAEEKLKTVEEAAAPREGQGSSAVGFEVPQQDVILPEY

[6] = target: Fibroblast growth factor receptor 3 (Homo sapiens) (UniProt P22607); experiment: Inhibition of FGFR3 (unknown origin) at 0.49 uM relative to control
[7] = target: Tyrosine-protein kinase Srms (Homo sapiens) (UniProt Q9H3Y6); experiment: Inhibition of SRM (SRMS) (unknown origin) at 0.49 uM relative to control
[8] = target: Mitogen-activated protein kinase 1 (Homo sapiens) (UniProt P28482); experiment: Inhibition of Erk2 (unknown origin) at 0.49 uM relative to control
[9] = target: Fibroblast growth factor receptor 4 (Homo sapiens) (UniProt P22455); experiment: Inhibition of FGFR4 (unknown origin) at 0.49 uM relative to control
[10] = test system: Hepatocyte growth factor receptor (Homo sapiens), P08581 [M1250T]; experiment: Inhibition of MET M1250T mutant (unknown origin) at 0.49 uM relative to control
[11] = target: Calcium/calmodulin-dependent protein kinase type II subunit beta (Homo sapiens) (UniProt Q13554); experiment: Inhibition of CaMK2-beta (unknown origin) at 0.45 uM relative to control
[12] = target: Phosphorylase b kinase gamma catalytic chain, liver/testis isoform (Homo sapiens) (UniProt P15735); experiment: Inhibition of PhKg2 (unknown origin) at 0.45 uM relative to control
[13] = target: AMP-activated protein kinase, AMPK (Homo sapiens) (UniProt P54646+O43741+P54619+Q9UGJ0+Q9Y478+Q13131+Q9UGI9); experiment: Inhibition of AMPK (unknown origin) at 0.45 uM relative to control
[14] = target: Ephrin type-B receptor 3 (Homo sapiens) (UniProt P54753); experiment: Inhibition of EPHB3 (unknown origin) at 0.45 uM relative to control
[15] = target: Leukocyte tyrosine kinase receptor (Homo sapiens) (UniProt P29376); experiment: Inhibition of LTK (unknown origin) at 0.45 uM relative to control
[16] = target: Protein kinase C delta type (Homo sapiens) (UniProt Q05655); experiment: Inhibition of PKC-delta (unknown origin) at 0.45 uM relative to control
[17] = target: BDNF/NT-3 growth factors receptor (Homo sapiens) (UniProt Q16620); experiment: Inhibition of NTRK2 (unknown origin) at 0.45 uM relative to control
[18] = target: Ephrin type-A receptor 4 (Homo sapiens) (UniProt P54764); experiment: Inhibition of EPHA4 (unknown origin) at 0.45 uM relative to control
[19] = target: Mitogen-activated protein kinase kinase kinase kinase 5 (Homo sapiens) (UniProt Q9Y4K4); experiment: Inhibition of KHS1 (unknown origin) at 0.45 uM relative to control
[20] = target: Mitogen-activated protein kinase 13 (Homo sapiens) (UniProt O15264); experiment: Inhibition of p38-delta (unknown origin) at 0.45 uM relative to control

Sequence of Ephrin type-B receptor 3 (Homo sapiens) (P54753 whole entry): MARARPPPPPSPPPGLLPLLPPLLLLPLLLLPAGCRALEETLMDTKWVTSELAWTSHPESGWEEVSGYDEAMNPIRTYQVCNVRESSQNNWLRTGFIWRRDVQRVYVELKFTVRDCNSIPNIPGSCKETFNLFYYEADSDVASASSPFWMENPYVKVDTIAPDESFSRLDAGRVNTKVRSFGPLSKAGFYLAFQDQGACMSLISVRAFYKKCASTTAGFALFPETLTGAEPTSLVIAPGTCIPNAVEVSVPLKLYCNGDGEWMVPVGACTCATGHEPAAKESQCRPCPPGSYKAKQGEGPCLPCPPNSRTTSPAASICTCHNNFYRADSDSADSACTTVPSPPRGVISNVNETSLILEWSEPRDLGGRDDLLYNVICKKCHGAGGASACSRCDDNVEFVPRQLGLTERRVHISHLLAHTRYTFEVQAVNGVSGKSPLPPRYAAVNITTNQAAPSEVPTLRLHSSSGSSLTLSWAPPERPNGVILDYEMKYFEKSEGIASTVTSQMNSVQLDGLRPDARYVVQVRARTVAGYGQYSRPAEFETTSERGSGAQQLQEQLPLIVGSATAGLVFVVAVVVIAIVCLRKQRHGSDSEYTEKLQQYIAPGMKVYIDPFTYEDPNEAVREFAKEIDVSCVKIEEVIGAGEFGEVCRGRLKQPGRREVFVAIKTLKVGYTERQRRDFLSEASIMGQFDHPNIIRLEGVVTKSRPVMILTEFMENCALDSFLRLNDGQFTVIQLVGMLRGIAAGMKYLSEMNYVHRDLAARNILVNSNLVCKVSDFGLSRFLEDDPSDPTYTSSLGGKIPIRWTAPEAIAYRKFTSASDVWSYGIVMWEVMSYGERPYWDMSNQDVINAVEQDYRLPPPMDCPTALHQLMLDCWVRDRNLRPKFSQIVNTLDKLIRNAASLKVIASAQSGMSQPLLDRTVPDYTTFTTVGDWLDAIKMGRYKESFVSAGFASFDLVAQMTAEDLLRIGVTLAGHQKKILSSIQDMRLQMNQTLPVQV
Sequence of Tyrosine-protein kinase Srms (Homo sapiens) (Q9H3Y6 whole entry): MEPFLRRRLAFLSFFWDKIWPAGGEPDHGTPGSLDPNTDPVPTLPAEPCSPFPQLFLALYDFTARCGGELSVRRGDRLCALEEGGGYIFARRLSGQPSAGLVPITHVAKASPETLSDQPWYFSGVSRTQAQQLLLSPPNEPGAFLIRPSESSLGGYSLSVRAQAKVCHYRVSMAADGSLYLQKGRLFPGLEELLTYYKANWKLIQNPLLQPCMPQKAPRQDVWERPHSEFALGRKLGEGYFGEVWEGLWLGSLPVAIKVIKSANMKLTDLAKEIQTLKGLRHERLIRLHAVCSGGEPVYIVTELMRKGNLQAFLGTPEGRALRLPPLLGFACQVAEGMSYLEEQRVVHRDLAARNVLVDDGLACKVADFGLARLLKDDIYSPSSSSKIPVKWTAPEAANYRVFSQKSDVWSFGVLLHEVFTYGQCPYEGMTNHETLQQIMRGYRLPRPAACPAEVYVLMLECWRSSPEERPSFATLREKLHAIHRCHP
Sequence of Tyrosine-protein kinase Lck (Homo sapiens) (P06239 2-509 limits assumed): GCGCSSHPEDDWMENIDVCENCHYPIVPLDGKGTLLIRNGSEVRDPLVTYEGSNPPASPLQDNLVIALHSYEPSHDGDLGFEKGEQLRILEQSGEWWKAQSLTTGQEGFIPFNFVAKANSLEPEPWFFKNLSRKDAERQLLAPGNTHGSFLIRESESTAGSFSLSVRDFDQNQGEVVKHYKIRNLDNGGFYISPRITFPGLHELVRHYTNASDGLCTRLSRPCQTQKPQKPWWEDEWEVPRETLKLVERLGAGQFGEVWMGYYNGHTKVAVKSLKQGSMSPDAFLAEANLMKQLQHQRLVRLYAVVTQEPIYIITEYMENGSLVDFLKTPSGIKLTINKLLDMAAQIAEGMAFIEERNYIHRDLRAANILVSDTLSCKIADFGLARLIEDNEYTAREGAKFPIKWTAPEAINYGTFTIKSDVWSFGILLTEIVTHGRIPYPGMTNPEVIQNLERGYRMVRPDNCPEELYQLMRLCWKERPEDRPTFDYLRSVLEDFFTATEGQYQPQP
Sequence of Leukocyte tyrosine kinase receptor (Homo sapiens) (P29376 whole entry): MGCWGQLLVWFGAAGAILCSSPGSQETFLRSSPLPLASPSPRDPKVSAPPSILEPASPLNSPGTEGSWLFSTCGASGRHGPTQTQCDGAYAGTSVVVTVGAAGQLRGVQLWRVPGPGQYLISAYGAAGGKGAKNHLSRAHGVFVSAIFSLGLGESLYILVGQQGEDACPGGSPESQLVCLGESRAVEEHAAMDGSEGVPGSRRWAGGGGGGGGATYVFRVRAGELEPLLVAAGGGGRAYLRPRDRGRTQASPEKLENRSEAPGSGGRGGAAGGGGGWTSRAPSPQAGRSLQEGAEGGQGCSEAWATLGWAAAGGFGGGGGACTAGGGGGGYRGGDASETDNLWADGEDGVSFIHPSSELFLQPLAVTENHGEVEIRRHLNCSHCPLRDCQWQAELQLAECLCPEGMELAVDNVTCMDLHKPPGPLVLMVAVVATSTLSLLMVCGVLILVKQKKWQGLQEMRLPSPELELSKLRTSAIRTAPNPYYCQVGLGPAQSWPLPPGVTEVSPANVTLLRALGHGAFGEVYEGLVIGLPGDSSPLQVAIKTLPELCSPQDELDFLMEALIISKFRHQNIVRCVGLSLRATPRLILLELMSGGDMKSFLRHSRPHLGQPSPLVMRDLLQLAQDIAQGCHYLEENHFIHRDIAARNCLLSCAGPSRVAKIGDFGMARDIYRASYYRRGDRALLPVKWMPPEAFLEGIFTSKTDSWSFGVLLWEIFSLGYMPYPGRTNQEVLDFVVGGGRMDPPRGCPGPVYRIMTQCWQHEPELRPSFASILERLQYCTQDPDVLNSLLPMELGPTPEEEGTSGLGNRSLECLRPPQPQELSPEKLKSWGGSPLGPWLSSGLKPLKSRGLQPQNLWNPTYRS
Sequence of Mitogen-activated protein kinase 1 (Homo sapiens) (P28482 whole entry): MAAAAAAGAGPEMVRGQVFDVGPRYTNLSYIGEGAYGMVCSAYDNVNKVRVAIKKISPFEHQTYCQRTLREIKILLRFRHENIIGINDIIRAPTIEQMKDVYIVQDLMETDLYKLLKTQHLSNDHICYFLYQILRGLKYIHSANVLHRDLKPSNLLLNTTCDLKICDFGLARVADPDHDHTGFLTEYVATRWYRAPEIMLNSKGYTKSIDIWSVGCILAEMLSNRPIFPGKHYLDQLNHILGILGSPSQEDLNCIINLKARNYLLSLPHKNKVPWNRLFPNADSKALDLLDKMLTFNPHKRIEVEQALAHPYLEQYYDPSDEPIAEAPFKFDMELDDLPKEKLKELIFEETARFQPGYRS
Sequence of Fibroblast growth factor receptor 3 (Homo sapiens) (P22607 23-806 limits assumed): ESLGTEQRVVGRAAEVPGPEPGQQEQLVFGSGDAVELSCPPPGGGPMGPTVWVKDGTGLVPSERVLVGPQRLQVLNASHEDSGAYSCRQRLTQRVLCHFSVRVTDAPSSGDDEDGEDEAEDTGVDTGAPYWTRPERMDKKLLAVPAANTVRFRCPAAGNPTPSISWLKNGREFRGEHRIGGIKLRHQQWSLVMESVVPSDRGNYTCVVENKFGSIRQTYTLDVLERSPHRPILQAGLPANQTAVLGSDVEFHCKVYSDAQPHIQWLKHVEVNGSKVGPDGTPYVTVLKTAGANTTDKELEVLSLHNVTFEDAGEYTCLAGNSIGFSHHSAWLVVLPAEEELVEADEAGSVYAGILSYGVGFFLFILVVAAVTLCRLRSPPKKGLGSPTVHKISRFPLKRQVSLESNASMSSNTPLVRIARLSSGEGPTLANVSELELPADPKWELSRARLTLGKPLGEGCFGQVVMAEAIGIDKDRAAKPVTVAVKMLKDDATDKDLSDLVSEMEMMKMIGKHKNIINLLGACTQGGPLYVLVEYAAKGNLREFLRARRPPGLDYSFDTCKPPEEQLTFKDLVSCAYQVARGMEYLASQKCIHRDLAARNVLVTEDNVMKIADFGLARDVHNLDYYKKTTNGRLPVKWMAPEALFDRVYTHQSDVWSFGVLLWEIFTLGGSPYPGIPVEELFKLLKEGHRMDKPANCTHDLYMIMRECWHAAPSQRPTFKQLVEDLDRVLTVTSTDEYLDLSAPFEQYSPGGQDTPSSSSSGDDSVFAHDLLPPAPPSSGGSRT
Sequence of Ephrin type-A receptor 4 (Homo sapiens) (P54764 whole entry): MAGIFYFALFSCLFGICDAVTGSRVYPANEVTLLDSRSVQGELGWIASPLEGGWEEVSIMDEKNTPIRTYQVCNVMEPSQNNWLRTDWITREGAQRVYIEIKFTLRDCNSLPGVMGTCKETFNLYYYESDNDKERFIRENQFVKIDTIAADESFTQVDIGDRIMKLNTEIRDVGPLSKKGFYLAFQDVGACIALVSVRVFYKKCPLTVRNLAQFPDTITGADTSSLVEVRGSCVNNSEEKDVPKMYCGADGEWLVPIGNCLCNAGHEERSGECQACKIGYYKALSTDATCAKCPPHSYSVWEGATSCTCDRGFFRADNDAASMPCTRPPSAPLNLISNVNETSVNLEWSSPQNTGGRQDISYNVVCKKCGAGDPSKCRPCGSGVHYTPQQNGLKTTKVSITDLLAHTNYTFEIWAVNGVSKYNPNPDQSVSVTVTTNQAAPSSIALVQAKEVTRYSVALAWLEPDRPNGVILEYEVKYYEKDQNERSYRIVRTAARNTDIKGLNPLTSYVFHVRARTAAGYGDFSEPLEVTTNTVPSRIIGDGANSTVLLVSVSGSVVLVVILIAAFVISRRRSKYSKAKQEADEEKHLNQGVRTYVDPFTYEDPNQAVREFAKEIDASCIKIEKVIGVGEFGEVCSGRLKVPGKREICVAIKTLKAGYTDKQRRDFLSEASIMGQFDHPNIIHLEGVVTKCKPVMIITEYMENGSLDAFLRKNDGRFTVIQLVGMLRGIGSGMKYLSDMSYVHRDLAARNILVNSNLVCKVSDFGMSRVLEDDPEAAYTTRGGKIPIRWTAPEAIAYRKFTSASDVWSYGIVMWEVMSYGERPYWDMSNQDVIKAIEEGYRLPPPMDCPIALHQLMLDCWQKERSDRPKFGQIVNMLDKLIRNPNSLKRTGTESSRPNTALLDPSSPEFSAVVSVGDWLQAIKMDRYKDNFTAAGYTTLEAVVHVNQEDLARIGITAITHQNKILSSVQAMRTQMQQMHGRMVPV

- inhibition [1]: -0.7%
- inhibition [2]: 9.7%
- inhibition [3]: 4.7%
- inhibition [4]: -4.3%
Structure (SMILES): COC(=O)Nc1noc2cc(-c3c(-c4ccccn4)n[nH]c3C)ccc12

- inhibition [5]: 2.3%
- inhibition [6]: -0.3%
- inhibition [7]: 2.3%
- inhibition [8]: -0.3%
- inhibition [9]: 0.3%
- inhibition [10]: 1.3%
Structure (SMILES): Cc1[nH]nc(C2CC2)c1-c1ccc2c(NC(=O)C3CC3)noc2c1

- inhibition [11]: -0.3%
- inhibition [12]: 1.7%
- inhibition [13]: 26%
- inhibition [14]: 2.7%
- inhibition [15]: 0%
- inhibition [16]: 5.3%
- inhibition [17]: 85.7%
- inhibition [18]: 0.7%
- inhibition [19]: 85%
- inhibition [20]: 4.3%
Structure (SMILES): Cc1n[nH]c(C)c1-c1ccc2c(NC(=O)c3ccc(N4CCN(C)CC4)cc3)n[nH]c2c1
